This is an account of results in paper PMC6770581, “New Thalidomide-Resembling Dicarboximides Target ABC50 Protein and Show Antileukemic and Immunomodulatory Activities” (Biomolecules, 2019).

What all share (type): cell-based, human
Test [1] concerns BAX, PMAIP1, HTRA2, TNFRSF 10B, ESRRBL1 mRNA. Nature of the test: Real-time RT-qPCR of apoptosis-related mRNAs in K562 cells. The following applies: K562, 18 h, 3 10 µM, 6 5 µM (5× IC50), relative to 1% DMSO, normalized to GAPDH. Here is the method:
The total RNA pool was isolated from the cells lysates using TriPure Isolation Reagent (Roche, Basel, Switzerland) according to the manufacturer's instruction. Purity and integrity of RNA was checked spectrophotometrically with a NanoDrop ND-1000 spectrophotometer (Thermo Fisher Scientific, Waltham, MA, USA) and Agilent 2100 Bioanalyzer instrument. […] Reverse transcription and polymerase chain reaction (RT-PCR) amplification reactions were performed in one step using a LightCycler® 1.0 Instrument (Roche) and LightCycler RNA Amplification Kit SYBR Green I (Roche). […] The qRT-PCR reactions were optimized for each studied gene and performed according to a general protocol: a reverse transcription reaction (RT) for 10 min. at 55 °C, and a denaturation step for 30 s at 95 °C. The three steps of PCR quantification reaction included: I-denaturation (0 s at 95 °C), II-annealing (10 s at 60 °C), III-product extension (8 s at 72 °C), 45 cycles in total. Subsequent melting experiments were performed by quick denaturation at 95 °C, annealing over 10 s at 65 °C and heating up to 95 °C at 0.1 °C/s. The BAX, PMAIP1, HTRA2, TNFRSF 10B, and ESRRBL1 mRNA levels were normalized against a reference GAPDH mRNA. […]

Another test deals with caspase 8 and caspase 9. Nature of the test: Western blot of caspase 8 and caspase 9 cleavage in K562 cells. The following applies: K562, 5 µM. Here is the method: 0.15 × 10^6 cells/ml were seeded on a 6-well plate (Nunclon, Thermo Fisher Scientific, Waltham, MA, USA). Following 24 hour preincubation the cells were treated with either the compound or 1% DMSO (control) for 24 or 48 hours. Cells were lysed using RIPA Buffer (Sigma) supplemented with Complete Protease Inhibitor Coctail (Roche, Basel, Switzerland) and PhosSTOP (Roche). Samples containing 20 µg protein were resuspended in 4× Laemmli’s Buffer (Biorad, Hercules, CA, USA), separated on 10% acrylamide gel (TGX Stain-Free Gel Kit, Biorad) and blotted onto nitrocellulose membrane (Panreac Applichem ITW, Darmstadt, Germany). Blots were blocked in 5% non-fat dry milk in TBST (1% (v/v) Tween-20, 140 mM NaCl, 25 mM Trizma, pH = 7.4 adjusted with HCl) for 1 h and incubated overnight with the antibodies against caspase-9 (9502), caspase-8 (9746), caspase-3 (9662), caspase-3 cleaved (9661) and β-actin (3700), all from Cell Signaling Technology, and antibody against poly(ADP-ribose)polymerase (PARP, 551025) from BD Pharmingen. Membranes were incubated with appropriate species-specific secondary antibodies conjugated with HRP (Cell Signaling Technology, Danvers, MA, USA). Blots were developed using ECL substrate (Biorad, Hercules, CA, USA). The experiment was performed in at least three independent biological replicates.
(In general: A western blot detects proteins with antibodies after separation by electrophoresis.)

Test [2] concerns HeLa cells with knocked-down ABC50 (HeLa kdABC). Briefly: MTT viability of HeLa cells with siRNA knockdown of ABC50. The following applies: 48 h. Here is the method: Human umbilical vein endothelial cells (purchased from Life Technologies, Carlsbad, CA, USA) were cultured according to the manufacturer’s instructions in Medium 200 supplemented with Low Serum Growth Supplement. 1 × 10^4 cells were seeded on each well on a 96-well plate (Nunc, Roskilde, Denmark). The HeLa (human cervix carcinoma, cat. #93021013), CFPAC (human pancreatic adenocarcinoma, cat. #91112501), K562 (chronic myelogenous leukemia, cat. #89121407), HL-60 (acute myelogenous leukemia, cat. #98070106), and MOLT-4 (Human acute T lymphoblastic leukemia, cat. #85011413) cells were purchased from European Collection of Authenticated Cell Cultures (ECACC). They were cultured in an RPMI 1640 medium supplemented with antibiotics (streptomycin, penicillin) and 10% fetal calf serum (20% for HL60), in a 5% CO2-95% air atmosphere. 7 × 10^3 cells were seeded on each well on a 96-well plate (Nunc). 24 hours later the cells were exposed to the test compounds. […] The cytotoxicity of all compounds was determined by the MTT (3-(4,5-dimethylthiazol-2-yl)-2,5-diphenyltetrazolium bromide) assay (Sigma, St. Louis, MO, USA). […] MTT-formazan crystals were dissolved in 20% SDS and 50% DMF at pH 4.7 and VIS light absorption was measured at 570 and 650 nm on a microplate reader FLUOstar Omega (BMG Labtech, Offenburg, Germany). […]
HeLa cells were transfected with a siRNA with the aid of Lipofectamine 3000 (Invitrogen, Carlsbas, CA, USA) according to manufacturer’s instructions. […] Unless otherwise stated, cells transfected with a given siRNA were analyzed 48 h post-transfection. siRNAs for ABC50 (NM_001090) were designed with the aid of the siDESIGN Center (www.dharmacon.com), synthesized in-house (the Department of Bioorganic Chemistry, Centre of Molecular and Macromolecular Studies, Polish Academy of Sciences (CMMS PAS) and purified by high-performance liquid chromatography (HPLC). The silencing efficiency of siRNAs was determined by western blotting of ABC50 protein in transfected HeLa cells. The following siRNA duplexes (S—sense strand, AS—antisense strand) were used: […]

For the compound `CCC12C(=O)C(CC)(C(c3ccccc3)=C1c1ccccc1)C1C(=O)N(CCN3CCCCC3)C(=O)C12` (stereo not shown) [Compound 3], in test [1], the “expression of mRNAs of receptor (TNFRSF 10B, ESRRBL1) and mitochondrial (BAX, PMAIP1, HTRA2) apoptotic pathways” value is “significantly induced”.

As to `CCC12C(=O)C(CC)(C(c3ccccc3)=C1c1ccccc1)C1C(=O)N(CC(O)CNC(C)C)C(=O)C12` (stereo not shown) [Compound 5], the “cleavage of caspase 8 and caspase 9 (Western blot)” value with caspase 8 and caspase 9 (24 h) is recorded as “cleaved form of caspase 9”; with caspase 8 and caspase 9 (48 h), “Cleaved (i.e., activated) forms of caspases 8/9 were detected”.

Take `CN(C)CCN1C(=O)C2C(C1=O)C1(c3ccccc3)CC2(c2ccccc2)C(c2ccccc2)=C1c1ccccc1` (stereo not shown) [Compound 6]: the “viability of HeLa cells with normal levels of ABC50 (siCTL)” value in test [2] (control siRNA, up to 2.5 µM) was “significantly lower”. Moreover, in test [2] (si166, 5 µM), the “reduction of viability of HeLa kdABC” value is “about 20%”. In addition, in test [2] (si166, up to 2.5 µM), the “viability of HeLa cells with knocked-down ABC50 (HeLa kdABC)” value is given as “not affected”. In addition, the “expression of mRNAs of receptor (TNFRSF 10B, ESRRBL1) and mitochondrial (BAX, PMAIP1, HTRA2) apoptotic pathways” value in test [1] is reported as “significantly induced”.
